Results from patent US20220026439A1, “PARTICLE BASED SMALL MOLECULE-PROTEIN COMPLEX TRAP” (priority 2018, published 2022).
Read-outs that look alike come from different tables or passages of the source. Each block holds one compound with its values, some of them ahead of it.

Key:
CRBN / ASS1 = biological target: T1, CRBN / ASS1 (Homo sapiens, UniProt Q96SW2); assay: ViroTrap (gag-CRBN bait) with LC-MS/MS: molecular glue-induced recruitment of endogenous ASS1 to CRBN in virus-like particles; assay type: cell-based
T1 construct: expressed in transfected cells; host or cells: HEK293T
Excerpt: In this study we evaluated the use of ViroTrap to identify molecular glue-induced endogenous (neo)substrates of CRBN in HEK293T cells. For this purpose, we used a previously described method known as ViroTrap (Eyckerman, et al. “Trapping mammalian protein complexes in viral particles,” Nature Communications 7: 11416 (2016); Titeca, et al. “Analyzing trapped protein complexes by Virotrap and SFINX.” Nature Protocols 12.5 (2017): 881). With this method, CRBN is expressed as a fusion protein with the viral protein HIV-GAG. HIV-GAG, when expressed in cells, such as HEK293T, is capable of triggering the formation of virus-like particles that bud off the cells. In the particle, the HIV-GAG protein is oriented towards the center of the particle. […] In the event the GAG-CRBN fusion interacts with proteins inside the cells, such proteins are dragged/trapped along with GAG-CRBN into the virus-like particles. In this manner, endogenous proteins that interact with CRBN, in presence or absence of a CRBN-ligand, can be identified. This is achieved by lysis of the particle and a standard mass-spectrometry analysis of tryptic digest of the sample. Subtractive analysis will then identify proteins that are specifically associated with the particle in response to a CRBN-ligand such as a molecular glue. […] Twenty-four hours after compound addition, virus-like particles (VLPs) were isolated from the cell supernatant using anti-Flag coated magnetobeads. After elution from the beads using Flag peptide, purified VLPs were lysed, and the protein content was digested overnight with trypsin. The peptide samples were analyzed through LC-MS/MS and label-free quantification data (LFQ intensities) from triplicate samples was processed using the MaxQuant software package and a volcano plot showing p-value (resulting from a two-sided t-test corrected for multiple testing; FDR 0.05%) versus LFQ intensity fold change (FIG. 1A-C) was generated with the Perseus tool.

FKBP12 / PPP3CA = FKBP12 / PPP3CA (Homo sapiens, UniProt P62942); assay: ViroTrap (gag-FKBP12 bait) with LC-MS/MS: FK506-induced binding of PPP3CA (calcineurin catalytic subunit) to FKBP12; assay type: cell-based; settings: HEK293T cells
[1] = biological target: PPP3CA, a calcineurin catalytic subunit, endogenous (UniProt Q08209); assay: ViroTrap: gag-FKBP12 VLPs from HEK293T cells, LC-MS/MS label-free quantification; FK506 1 µM versus DMSO control

T1 sequence (Q96SW2 whole entry, species assumed): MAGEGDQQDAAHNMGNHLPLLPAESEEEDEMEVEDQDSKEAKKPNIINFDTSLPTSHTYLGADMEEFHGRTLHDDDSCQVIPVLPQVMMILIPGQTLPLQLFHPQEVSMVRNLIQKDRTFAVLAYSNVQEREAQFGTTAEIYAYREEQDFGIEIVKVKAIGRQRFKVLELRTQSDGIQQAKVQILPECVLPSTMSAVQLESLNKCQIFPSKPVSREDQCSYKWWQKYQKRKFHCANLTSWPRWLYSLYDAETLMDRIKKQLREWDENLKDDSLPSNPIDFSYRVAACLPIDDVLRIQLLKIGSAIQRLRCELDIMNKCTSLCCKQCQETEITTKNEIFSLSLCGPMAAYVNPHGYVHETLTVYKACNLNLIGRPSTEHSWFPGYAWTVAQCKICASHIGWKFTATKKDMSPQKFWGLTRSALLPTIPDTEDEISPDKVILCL
T1 sequence (P00966 whole entry partner, species assumed): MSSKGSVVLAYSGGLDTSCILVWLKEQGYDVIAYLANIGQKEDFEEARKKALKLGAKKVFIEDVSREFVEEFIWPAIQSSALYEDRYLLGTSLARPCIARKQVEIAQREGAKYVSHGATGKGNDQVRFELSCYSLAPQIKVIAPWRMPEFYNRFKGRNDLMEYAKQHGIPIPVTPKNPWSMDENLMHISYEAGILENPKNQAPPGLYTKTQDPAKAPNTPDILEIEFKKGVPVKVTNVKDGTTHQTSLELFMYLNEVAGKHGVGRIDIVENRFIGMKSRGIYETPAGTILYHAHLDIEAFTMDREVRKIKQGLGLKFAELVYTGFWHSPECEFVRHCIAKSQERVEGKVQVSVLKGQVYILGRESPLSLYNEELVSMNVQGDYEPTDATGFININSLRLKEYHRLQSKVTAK
T1 sequence (Q16531 2-1140 partner limits assumed, species assumed): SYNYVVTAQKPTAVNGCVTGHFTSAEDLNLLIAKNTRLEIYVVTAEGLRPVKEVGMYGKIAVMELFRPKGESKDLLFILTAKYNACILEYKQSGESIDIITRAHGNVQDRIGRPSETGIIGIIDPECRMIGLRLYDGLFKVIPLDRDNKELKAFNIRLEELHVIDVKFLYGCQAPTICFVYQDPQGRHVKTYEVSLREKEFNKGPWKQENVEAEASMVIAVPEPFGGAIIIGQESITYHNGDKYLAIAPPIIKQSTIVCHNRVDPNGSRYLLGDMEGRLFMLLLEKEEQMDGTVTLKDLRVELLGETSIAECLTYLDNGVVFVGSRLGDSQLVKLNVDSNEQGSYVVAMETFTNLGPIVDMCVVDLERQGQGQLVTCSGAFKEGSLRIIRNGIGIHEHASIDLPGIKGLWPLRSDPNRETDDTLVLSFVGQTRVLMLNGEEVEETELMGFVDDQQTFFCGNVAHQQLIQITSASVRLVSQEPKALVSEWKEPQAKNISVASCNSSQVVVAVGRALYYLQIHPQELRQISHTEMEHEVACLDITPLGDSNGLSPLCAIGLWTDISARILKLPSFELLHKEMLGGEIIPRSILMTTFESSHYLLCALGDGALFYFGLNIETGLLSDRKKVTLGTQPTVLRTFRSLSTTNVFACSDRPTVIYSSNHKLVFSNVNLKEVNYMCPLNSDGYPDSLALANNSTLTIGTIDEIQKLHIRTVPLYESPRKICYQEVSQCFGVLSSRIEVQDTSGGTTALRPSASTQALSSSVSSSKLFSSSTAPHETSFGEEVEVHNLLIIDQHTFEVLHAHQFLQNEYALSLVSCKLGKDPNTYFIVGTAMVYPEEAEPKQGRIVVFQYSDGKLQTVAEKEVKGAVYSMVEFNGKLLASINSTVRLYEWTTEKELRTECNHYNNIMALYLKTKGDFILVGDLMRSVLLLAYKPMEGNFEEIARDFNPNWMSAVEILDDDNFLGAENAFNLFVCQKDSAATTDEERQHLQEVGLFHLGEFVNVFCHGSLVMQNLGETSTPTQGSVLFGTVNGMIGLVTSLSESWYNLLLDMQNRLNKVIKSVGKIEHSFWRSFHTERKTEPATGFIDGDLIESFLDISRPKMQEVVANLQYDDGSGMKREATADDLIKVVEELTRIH
FKBP12 / PPP3CA, sequence (P62942 whole entry, species assumed, other chains not shown): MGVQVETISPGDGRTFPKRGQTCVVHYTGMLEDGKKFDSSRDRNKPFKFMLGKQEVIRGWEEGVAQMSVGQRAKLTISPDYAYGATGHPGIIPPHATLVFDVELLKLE
FKBP12 / PPP3CA, sequence (P63098 2-170 partner limits assumed, species assumed, other chains not shown): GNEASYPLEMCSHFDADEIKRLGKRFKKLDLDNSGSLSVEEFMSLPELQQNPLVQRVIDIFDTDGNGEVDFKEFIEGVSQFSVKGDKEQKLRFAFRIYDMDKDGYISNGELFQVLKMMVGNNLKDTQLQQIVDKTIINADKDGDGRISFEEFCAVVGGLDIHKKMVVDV
gag-FKBP12 fusion protein, sequence (P62942 whole entry, the tested form may be a part): as the sequence (P62942 whole entry, species assumed, other chains not shown) above

Compound: O=C1CC[C@H](N2Cc3c(OCc4ccc(CN5CCOCC5)cc4)cccc3C2=O)C(=O)N1 [CC-220]
Compound-induced association of endogenous ASS1 with CRBN (result in words) (CRBN / ASS1; HEK293T cells, 10 μM lenalidomide, 10 μM pomalidomide, 1 μM CC-220, versus DMSO): induced the association of endogenous ASS1 with CRBN
Fold change (LFQ intensity, compound versus DMSO) of target protein ASS1 (CRBN / ASS1; bait CRBN, 1 μM compound, HEK293T cells, VLPs isolated 24 h after compound addition, triplicate samples): 3.31

FK506-induced enrichment of PPP3CA in gag-FKBP12 virus-like particles (result in words) (FKBP12 / PPP3CA; FK506 versus DMSO): enriched for the presence of PPP3CA
Fold change (LFQ intensity, compound versus DMSO) of target protein PPP3CA (FKBP12 / PPP3CA; bait FKBP12, 1 μM compound): 9.71
Compound: C=CC[C@@H]1/C=C(\C)C[C@H](C)C[C@H](OC)[C@H]2O[C@@](O)(C(=O)C(=O)N3CCCC[C@H]3C(=O)O[C@H](/C(C)=C/[C@@H]3CC[C@@H](O)[C@H](OC)C3)[C@H](C)[C@@H](O)CC1=O)[C@H](C)C[C@@H]2OC [FK506, tacrolimus]

Fold change (LFQ intensity, compound versus DMSO) of target protein ASS1 (CRBN / ASS1): 2.01
Compound: Nc1cccc2c1C(=O)N(C1CCC(=O)NC1=O)C2=O (stereo not shown) [Pomalidomide, pomalidomide]
Compound-induced association of endogenous ASS1 with CRBN (result in words) (CRBN / ASS1): induced the association of endogenous ASS1 with CRBN

Compound: gag-FKBP12 fusion protein (from UniProt P62942 1-108)
Fold change (LFQ intensity, compound versus DMSO) [1]: 9.71 fold
